Read-outs that look alike come from different tables or passages of the source.
Experiments:
[1] = system: β subunit of the insulin receptor and calmodulin; settings: rat hepatocyte insulin receptor preparations, absence of insulin; literature; cited from earlier work
[2] = target: T1, human insulin receptor kinase (Homo sapiens, UniProt P06213); test: Kinase assay: phosphorylation of exogenous src-related peptide by purified insulin receptor; type: biochemical; settings: for activation of the insulin receptor kinase over the control: 1 μM basic protein or polyamine, preincubated 25° C. 1 hour, FIG. 1; for concentrations at which kinase activity is stimulated: dose response; for reactivation of receptor preparations that lost kinase activity or insulin dependency: aged preparations stored at -70° C.
T1 construct: from tissue; host or cells: human placenta (Triton X-100 solubilized membranes; wheat germ agglutinin and insulin-Sepharose chromatography)
Method: The substrate used is a synthetic peptide (src-related peptide) which resembles the amino acid sequence around the site of phosphorylation of the tyrosine residue in the Rous sarcoma virus transforming protein, pp60^src, with the sequence ([…], Casnellie, J. E., et al., Proc. Natl. Acad. Sci. USA 79:282 (1982).
The phosphorylation assays were carried out at 25° C. for 40 minutes in 30 ul of 50 mM Tris-HCl buffer (pH 7.4) containing 1 mM of the src-related peptide, 2 mM MnCl2, 15 mM MgCl2, 0.1% Triton X-100, and 40 μM [γ-^32 ]ATP (12,000 cpm/pmole). The reaction was terminated by adding 50 μl of 5% trichloroacetic acid (TCA) and 20 μl of bovine serum albumin (BSA) (10 mg/ml), the resulting solution was then incubated at 0° C. for 30 minutes, and the proteins were precipitated by centrifugation. Aliquots (35 μl) of the resulting supernatant were spotted on phosphocellulose paper (Whatman, P-81). The papers were extensively washed in 75 mM phosphoric acid. Duplicates of the papers were prepared from each reaction mixture and ^32 P incorporated into the src-related peptide was counted using a liquid scintillation counter.

[3] = system: insulin receptor kinase; settings: literature, cited from earlier work
[4] = target: T2, β and α subunits of the insulin receptor (Homo sapiens, UniProt P06213); test: Phosphoamino acid analysis of phosphorylated β and α subunits by paper electrophoresis; type: biochemical
T2 construct: from tissue; host or cells: human placenta (Triton X-100 solubilized membranes; wheat germ agglutinin and insulin-Sepharose chromatography)
Method: Chem 254:1206 (1984), and hydrolyzing the peptides in 2N HCl for 2 hours at 110° C. The materials were then analyzed by paper electrophoresis (pH 3.5, 2000 V, 1 hour) and autoradiography.
Lanes 1-4 of FIG. 4B contain amounts of hydrolysates equal to 50% of the starting materials from the FIG. 4A gel. […] Other radioactive samples were electrophoresed together with these three phosphoamino acids. Ninhydrin spots for those are not shown. X indicates the origin of the samples.

[5] = target: T3, insulin receptor β subunit (Homo sapiens, UniProt P06213); test: Phosphorylation (autophosphorylation) of insulin receptor subunits, SDS-PAGE and autoradiography; type: biochemical
T3 construct: from tissue; host or cells: human placenta (Triton X-100 solubilized membranes; wheat germ agglutinin and insulin-Sepharose chromatography)
Method: The β subunit of the purified receptor was phosphorylated in the same manner as described above for the exogenous substrate phosphorylation. The reaction was terminated by adding 3-times concentrated Laemmli's sample buffer followed by boiling for 5 minutes. SDS-polyacrylamide gel electrophoresis was then performed under reducing conditions as described by Laemmli, U. K., Nature 227:680 (1970). The gels were stained with silver, dried, and autoradiographed.
After the kinase reaction was terminated by adding TCA and BSA as described in the above procedures, the proteins containing the insulin receptor were precipitated by centrifugation. The precipitated proteins were then subjected to SDS polyacrylamide gel electrophoresis (7.5% gel) under reducing conditions. The gels were stained with silver, dried, and autoradiographed for 30 hours using a Kodak XAR-5 film and an intensifying screen.
The insulin receptor was then phosphorylated according to the procedures described above. After the phosphorylation, the receptors were analyzed by SDS polyacrylamide gel electrophoresis (10% gel) under non-reducing conditions. The gel was dried and autoradiographed for 45 minutes at -70° C. by exposing the gel to a Kodak XAR-5 film with an intensifying screen.

Compound: poly L-ornithine
- stimulation of phosphorylation of the β subunit of the insulin receptor (and calmodulin) [1]: effective to stimulate the phosphorylation of the β subunit of the insulin receptor
- activation of the insulin receptor kinase over the control [2]: approximately 4 fold
- concentrations at which kinase activity is stimulated ([2]; FIG. 2): 0.1 to 1.0 µM

Compound: histone Hf2b [reference compound]
- stimulation of phosphorylation of the β subunit of the insulin receptor (and calmodulin) [1]: appeared to stimulate the phosphorylation of both the β subunit of the insulin receptor and calmodulin

Compound: [Na+].[Na+].[Na+].[O]=[V]([O-])([O-])[O-] [vanadate, sodium orthovanadate]
- activation of the insulin receptor kinase [3]: activate the insulin receptor kinase

Compound: poly L-lysine
- stimulation of phosphorylation of the β subunit of the insulin receptor (and calmodulin) [1]: appeared to stimulate the phosphorylation of both the β subunit of the insulin receptor and calmodulin
- β subunit phosphorylation, radioactivity of hydrolysate ([4]; 0.25 μM poly L-lysine, 20% of the original material, FIG. 4B lane 6): 1700 cpm
- α subunit phosphorylation, radioactivity of hydrolysate ([4]; 0.25 μM poly L-lysine, hydrolysate equal to 50% of starting material, FIG. 4B lane 4): 1000 cpm
- β subunit phosphorylation, radioactivity of hydrolysate ([4]; 1 μM insulin or 0.25 μM poly L-lysine, hydrolysate equal to 50% of starting material, FIG. 4B): 4400 cpm
- phosphoamino acid composition of phosphorylated β and α subunits ([4]; FIG. 4B): tyrosine was found to be a major amino acid whose phosphorylation was stimulated
- phosphorylation of insulin receptor subunits ([5]; 0.25 μM poly L-lysine, non-reducing SDS-PAGE, FIG. 4A lane 3): stimulates phosphorylation of α and β1 subunits in addition to the β subunit
- stimulation of β subunit autophosphorylation compared with insulin ([5]; 0.001-10 μM poly L-lysine, with or without 1 μM insulin, FIG. 3B): greater than that of insulin
- kinetic analysis (Vmax, KM), Lineweaver-Burk plots ([2]; 0.24 μM poly L-lysine, varying src-related peptide, FIGS. 6B, 6C): increasing Vmax without significantly changing KM
- activation of the insulin receptor kinase over the control [2]: approximately 5 fold
- stimulative effect on kinase activity ([2]; 100 μM poly L-lysine, FIG. 3A): can no longer be seen
- reactivation of receptor preparations that lost kinase activity or insulin dependency [2]: can activate certain old insulin receptor preparations
- reactivation of receptor preparations that lost kinase activity or insulin dependency ([2]; listed as Poly L-lysine): able to restore the kinase activity of insulin receptor preparation that have lost some, but not all, kinase activity
- concentrations at which kinase activity is stimulated ([2]; FIG. 2): 0.1 to 1.0 µM
- kinase activation compared with activation by insulin ([2]; optimum poly L-lysine concentrations vs 1 μM insulin, FIG. 3A): much greater than the kinase activation by insulin
- Kinase activity ([2]; preincubation with 0.24 μM PLL): 0.234 pmol/min
- Kinase Activity -fold ([2]; preincubation with 0.24 μM PLL, relative to no addition): 39 fold
- Kinase activity ([2]; receptor preparation A, stored 36 Mo. at -70° C., 1 μM insulin or 0.24 μM poly L-lysine): 0.002 pmol/min
- Kinase activity ([2]; receptor preparation B, stored 28 Mo. at -70° C., 1 μM insulin or 0.24 μM poly L-lysine): 0.174 pmol/min
- Kinase activity ([2]; receptor preparation C, stored 15 Mo. at -70° C., 1 μM insulin or 0.24 μM poly L-lysine): 0.229 pmol/min
- Kinase activity ([2]; receptor preparation D, stored 3 Mo. at -70° C., 1 μM insulin or 0.24 μM poly L-lysine): 2.30 pmol/min
- Kinase activity ([2]; receptor preparation E, stored <3 Days, 1 μM insulin or 0.24 μM poly L-lysine): 1.13 pmol/min
- kinase activity after poly L-lysine treatment ([2]; receptor preparations older than 36 months (data not shown)): no kinase activity

Compound: protamine sulfate
- stimulation of phosphorylation of the β subunit of the insulin receptor (and calmodulin) [1]: appeared to stimulate the phosphorylation of both the β subunit of the insulin receptor and calmodulin
- stimulatory effect on kinase activity relative to basal ([2]; 10 μM, FIG. 2): approximately two-fold

Compound: OO [H2 O2, hydrogen peroxide]
- activation of the insulin receptor kinase [3]: activate the insulin receptor kinase

Compound: insulin
- activation of the insulin receptor kinase [3]: activate the insulin receptor kinase

Compound: concanavalin A
- activation of the insulin receptor kinase [3]: activate the insulin receptor kinase

Compound: O[C@H](CS)[C@H](O)CS (racemic) [DTT, dithiothreitol, reference compound]
- activation of the insulin receptor kinase [3]: activate the insulin receptor kinase
- activation of the insulin receptor kinase ([3]; listed as dithiothreitol (DTT)): activates the insulin receptor kinase
- Kinase activity ([2]; preincubation with 0.1 mM DTT): 0.059 pmol/min
- Kinase activity ([2]; preincubation with 0.5 mM DTT): 0.083 pmol/min
- fold induction at 100 µM ([2]; read-out: Kinase Activity -fold, preincubation with 0.1 mM DTT, relative to no addition): 9.8
- fold induction at 500 µM ([2]; read-out: Kinase Activity -fold, preincubation with 0.5 mM DTT, relative to no addition): 13.8

Compound: poly L-arginine
- stimulation of phosphorylation of the β subunit of the insulin receptor (and calmodulin) [1]: effective to stimulate the phosphorylation of the β subunit of the insulin receptor
- effect on kinase activity in dose response ([2]; all concentrations examined, FIG. 2): inhibited the kinase activity of the receptor at any of the concentrations examined

— US4962155A (City of Hope, priority 1987, dated 1990)
